Data: publication PMC6943732, “The Disulfide Stress Response and Protein S-thioallylation Caused by Allicin and Diallyl Polysulfanes in Bacillus subtilis as Revealed by Transcriptomics and Proteomics” (Antioxidants, 2019)

Experiments:
Type in all cases: cell-based
[1] = target: T1, GlnA (Bacillus subtilis, UniProt P12425); assay: shotgun Orbitrap LC-MS/MS of S-thioallylated Cys peptides (+[…] Da); conditions: covalent
T1 construct: native, in treated cells, shotgun proteomics of tryptic peptides
T1 sequence (P12425 2-444): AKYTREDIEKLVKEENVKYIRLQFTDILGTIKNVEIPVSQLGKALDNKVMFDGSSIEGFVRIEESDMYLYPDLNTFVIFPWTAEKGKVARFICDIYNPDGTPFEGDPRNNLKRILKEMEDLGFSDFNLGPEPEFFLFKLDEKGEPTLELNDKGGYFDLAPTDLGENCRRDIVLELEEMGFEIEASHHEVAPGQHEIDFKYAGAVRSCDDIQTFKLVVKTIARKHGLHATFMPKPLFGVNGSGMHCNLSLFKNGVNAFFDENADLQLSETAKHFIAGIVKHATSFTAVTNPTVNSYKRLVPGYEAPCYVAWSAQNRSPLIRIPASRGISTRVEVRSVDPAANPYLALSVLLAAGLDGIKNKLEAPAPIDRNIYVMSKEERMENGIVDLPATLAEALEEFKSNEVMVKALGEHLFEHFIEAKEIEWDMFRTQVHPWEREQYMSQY

[2] = target: T2, SerA (Bacillus subtilis, UniProt P35136); assay: as above; conditions: covalent, redox-sensitive Cys
T2 construct: native, in treated cells, shotgun proteomics of tryptic peptides
T2 sequence (P35136 1-525): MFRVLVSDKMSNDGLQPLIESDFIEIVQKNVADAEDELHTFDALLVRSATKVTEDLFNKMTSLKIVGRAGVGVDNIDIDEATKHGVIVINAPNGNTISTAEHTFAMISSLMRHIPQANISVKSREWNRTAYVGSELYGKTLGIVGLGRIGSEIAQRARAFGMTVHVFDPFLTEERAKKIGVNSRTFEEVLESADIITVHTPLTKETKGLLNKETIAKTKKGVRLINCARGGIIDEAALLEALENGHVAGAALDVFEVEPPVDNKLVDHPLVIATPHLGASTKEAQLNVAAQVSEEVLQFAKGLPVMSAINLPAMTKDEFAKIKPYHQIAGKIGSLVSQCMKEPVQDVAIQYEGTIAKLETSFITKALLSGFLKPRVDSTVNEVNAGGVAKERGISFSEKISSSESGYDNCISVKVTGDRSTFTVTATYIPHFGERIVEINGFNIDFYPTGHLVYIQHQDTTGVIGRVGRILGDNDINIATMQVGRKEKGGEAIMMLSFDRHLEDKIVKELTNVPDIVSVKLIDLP

[3] = target: T3, FusA (EF-G) (Bacillus subtilis, UniProt P80868); assay: as above; conditions: covalent, Cys239
T3 construct: native, in treated cells, shotgun proteomics of tryptic peptides
T3 sequence (P80868 2-692): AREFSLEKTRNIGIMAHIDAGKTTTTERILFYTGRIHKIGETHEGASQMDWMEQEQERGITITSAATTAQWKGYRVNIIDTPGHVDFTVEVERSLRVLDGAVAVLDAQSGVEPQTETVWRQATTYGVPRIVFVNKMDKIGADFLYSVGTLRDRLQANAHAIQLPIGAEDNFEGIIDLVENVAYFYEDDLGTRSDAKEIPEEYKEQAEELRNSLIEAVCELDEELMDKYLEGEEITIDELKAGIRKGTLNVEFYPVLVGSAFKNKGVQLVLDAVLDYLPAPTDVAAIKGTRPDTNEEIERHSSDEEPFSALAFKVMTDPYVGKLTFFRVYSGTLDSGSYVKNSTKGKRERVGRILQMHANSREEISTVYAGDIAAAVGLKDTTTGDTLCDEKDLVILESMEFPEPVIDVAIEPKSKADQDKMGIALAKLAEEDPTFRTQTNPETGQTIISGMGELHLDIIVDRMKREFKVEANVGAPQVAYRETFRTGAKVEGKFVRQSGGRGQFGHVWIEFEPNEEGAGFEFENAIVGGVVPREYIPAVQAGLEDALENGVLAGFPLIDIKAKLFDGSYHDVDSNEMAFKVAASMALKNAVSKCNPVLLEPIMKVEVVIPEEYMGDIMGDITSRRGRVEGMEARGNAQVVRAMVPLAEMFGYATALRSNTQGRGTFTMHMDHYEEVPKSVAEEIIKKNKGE

[4] = target: T4, YxjG (Bacillus subtilis, UniProt P42318); assay: as above; conditions: covalent, redox-sensitive Cys
T4 construct: native, in treated cells, shotgun proteomics of tryptic peptides
T4 sequence (P42318 1-378): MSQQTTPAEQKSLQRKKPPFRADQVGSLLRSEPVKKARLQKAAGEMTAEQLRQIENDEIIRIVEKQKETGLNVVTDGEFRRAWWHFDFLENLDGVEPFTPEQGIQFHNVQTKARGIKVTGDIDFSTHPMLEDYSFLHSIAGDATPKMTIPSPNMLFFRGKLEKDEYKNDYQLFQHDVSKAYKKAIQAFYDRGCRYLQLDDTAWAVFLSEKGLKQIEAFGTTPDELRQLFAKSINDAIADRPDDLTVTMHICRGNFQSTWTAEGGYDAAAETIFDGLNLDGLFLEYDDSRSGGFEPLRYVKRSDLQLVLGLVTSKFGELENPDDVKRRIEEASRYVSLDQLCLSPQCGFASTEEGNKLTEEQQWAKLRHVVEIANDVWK

[5] = target: T5, GuaB (Bacillus subtilis, UniProt P21879); assay: as above; conditions: covalent, active site Cys308
T5 construct: native, in treated cells, shotgun proteomics of tryptic peptides
T5 sequence (P21879 whole entry): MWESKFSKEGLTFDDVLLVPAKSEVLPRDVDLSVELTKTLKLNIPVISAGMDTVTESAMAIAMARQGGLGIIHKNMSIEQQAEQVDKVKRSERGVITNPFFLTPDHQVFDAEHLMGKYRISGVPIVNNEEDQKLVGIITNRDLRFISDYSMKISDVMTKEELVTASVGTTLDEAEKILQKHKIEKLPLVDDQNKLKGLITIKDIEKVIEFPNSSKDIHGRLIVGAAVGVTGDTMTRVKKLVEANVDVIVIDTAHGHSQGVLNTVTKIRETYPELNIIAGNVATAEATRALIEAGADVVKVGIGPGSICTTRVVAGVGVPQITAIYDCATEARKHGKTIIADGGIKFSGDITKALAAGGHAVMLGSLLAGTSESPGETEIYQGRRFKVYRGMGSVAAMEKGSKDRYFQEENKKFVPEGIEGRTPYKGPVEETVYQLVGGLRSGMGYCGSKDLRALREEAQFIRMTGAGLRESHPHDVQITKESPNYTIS

[6] = target: T6, TufA (EF-Tu) (Bacillus subtilis, UniProt P33166); assay: as above; conditions: covalent, Cys83
T6 construct: gene tuf; native, in treated cells, shotgun proteomics of tryptic peptides
T6 sequence (P33166 2-396): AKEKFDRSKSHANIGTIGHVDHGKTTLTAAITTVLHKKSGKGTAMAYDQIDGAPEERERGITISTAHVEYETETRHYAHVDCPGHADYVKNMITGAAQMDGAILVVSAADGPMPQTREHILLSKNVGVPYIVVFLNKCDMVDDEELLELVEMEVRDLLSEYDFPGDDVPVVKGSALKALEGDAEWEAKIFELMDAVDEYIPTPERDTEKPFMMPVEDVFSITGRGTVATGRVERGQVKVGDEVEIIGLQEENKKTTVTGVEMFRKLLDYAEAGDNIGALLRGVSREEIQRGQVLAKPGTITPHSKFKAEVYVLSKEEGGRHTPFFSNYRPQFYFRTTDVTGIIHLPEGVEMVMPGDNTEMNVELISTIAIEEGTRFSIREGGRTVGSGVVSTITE

[7] = target: T7, MetE (Bacillus subtilis, UniProt P80877); assay: as above; conditions: covalent, Cys719/Cys730
T7 construct: native, in treated cells, shotgun proteomics of tryptic peptides
T7 sequence (P80877 2-762): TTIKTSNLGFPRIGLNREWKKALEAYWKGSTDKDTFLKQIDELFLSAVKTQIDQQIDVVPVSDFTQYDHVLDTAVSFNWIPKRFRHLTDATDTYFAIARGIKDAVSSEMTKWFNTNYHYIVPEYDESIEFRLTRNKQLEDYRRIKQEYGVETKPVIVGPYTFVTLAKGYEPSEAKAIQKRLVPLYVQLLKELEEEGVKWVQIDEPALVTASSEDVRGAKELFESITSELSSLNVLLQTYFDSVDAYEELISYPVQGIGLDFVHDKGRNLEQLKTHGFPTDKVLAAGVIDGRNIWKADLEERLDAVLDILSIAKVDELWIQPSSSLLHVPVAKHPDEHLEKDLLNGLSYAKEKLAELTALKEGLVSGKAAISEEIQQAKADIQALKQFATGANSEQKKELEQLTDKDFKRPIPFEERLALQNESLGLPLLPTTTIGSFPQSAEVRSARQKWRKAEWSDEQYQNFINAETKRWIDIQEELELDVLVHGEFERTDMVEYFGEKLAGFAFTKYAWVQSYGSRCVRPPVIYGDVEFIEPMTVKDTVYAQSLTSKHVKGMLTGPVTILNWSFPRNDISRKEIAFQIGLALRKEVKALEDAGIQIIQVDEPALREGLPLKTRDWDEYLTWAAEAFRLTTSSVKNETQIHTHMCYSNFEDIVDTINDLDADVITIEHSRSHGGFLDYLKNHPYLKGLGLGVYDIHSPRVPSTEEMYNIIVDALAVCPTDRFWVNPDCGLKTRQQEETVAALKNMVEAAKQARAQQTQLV

[8] = target: T8, PpaC (Bacillus subtilis, UniProt P37487); assay: as above; conditions: covalent, active site Cys158
T8 construct: native, in treated cells, shotgun proteomics of tryptic peptides
T8 sequence (P37487 whole entry): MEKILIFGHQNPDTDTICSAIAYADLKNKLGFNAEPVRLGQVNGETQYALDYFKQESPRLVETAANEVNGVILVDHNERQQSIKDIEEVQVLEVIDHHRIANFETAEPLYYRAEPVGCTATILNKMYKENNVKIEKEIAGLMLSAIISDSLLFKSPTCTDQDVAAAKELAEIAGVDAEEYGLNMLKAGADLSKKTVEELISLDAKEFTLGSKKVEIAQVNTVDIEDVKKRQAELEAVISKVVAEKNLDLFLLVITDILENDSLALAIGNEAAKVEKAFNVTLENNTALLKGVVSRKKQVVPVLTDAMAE

[9] = target: T9, YodB (Bacillus subtilis, UniProt O34844); assay: IP and Orbitrap LC-MS/MS of S-thioallylated Cys peptides (+[…] Da); conditions: covalent; allicin-treated cells; Cys101 (Cys6 peptide not identified)
T9 construct: native, immunoprecipitated with polyclonal antibody from allicin-treated cells
T9 sequence (O34844 whole entry): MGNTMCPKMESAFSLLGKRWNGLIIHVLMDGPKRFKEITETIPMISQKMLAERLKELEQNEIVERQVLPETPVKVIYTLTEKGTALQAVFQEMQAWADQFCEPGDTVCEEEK

[10] = target: T10, CatR (Bacillus subtilis, UniProt O32238); assay: as above; conditions: covalent; allicin-treated cells; Cys7
T10 construct: gene yvaP; native, immunoprecipitated with polyclonal antibody from allicin-treated cells
T10 sequence (O32238 1-108): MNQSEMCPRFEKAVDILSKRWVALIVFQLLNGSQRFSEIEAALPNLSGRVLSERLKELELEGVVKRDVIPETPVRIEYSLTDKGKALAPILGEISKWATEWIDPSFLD

[11] = target: T11, HypR (Bacillus subtilis, UniProt P37486); assay: as above; conditions: covalent; allicin-treated cells; Cys14
T11 construct: gene yybR; native, immunoprecipitated with polyclonal antibody from allicin-treated cells
T11 sequence (P37486 whole entry): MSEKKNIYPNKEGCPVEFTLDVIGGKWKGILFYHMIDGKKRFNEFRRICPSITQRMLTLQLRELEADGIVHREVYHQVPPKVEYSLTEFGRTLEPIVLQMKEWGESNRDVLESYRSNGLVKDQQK

[12] = target: T12, OhrR-FLAG (Bacillus subtilis, UniProt O34777); assay: as above; conditions: covalent; cells treated with 90 µM allicin, 30 min; Cys15 (b28 names the redox-sensing residue Cys22)
T12 construct: FLAG-tagged, expressed in B. subtilis, immunoprecipitated from allicin-treated cells
T12 sequence (O34777 1-147): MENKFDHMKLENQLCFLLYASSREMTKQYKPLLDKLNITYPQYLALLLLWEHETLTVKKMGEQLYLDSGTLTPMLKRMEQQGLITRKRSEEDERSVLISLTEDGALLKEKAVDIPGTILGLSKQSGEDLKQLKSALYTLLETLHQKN

[13] = cells treated with 92 µM DAS4, 30 min
[14] = cells treated with 90 µM allicin, 30 min

| SMILES | shotgun Orbitrap LC-MS/MS of S-thioallylated Cys peptides (+72 Da) [1, 13] | shotgun Orbitrap LC-MS/MS of S-thioallylated Cys peptides (+72 Da) [2, 13] | shotgun Orbitrap LC-MS/MS of S-thioallylated Cys peptides (+72 Da) [3, 13] | shotgun Orbitrap LC-MS/MS of S-thioallylated Cys peptides (+72 Da) [4, 13] | shotgun Orbitrap LC-MS/MS of S-thioallylated Cys peptides (+72 Da) [5, 13] | shotgun Orbitrap LC-MS/MS of S-thioallylated Cys peptides (+72 Da) [6, 13] | shotgun Orbitrap LC-MS/MS of S-thioallylated Cys peptides (+72 Da) [7, 13] | shotgun Orbitrap LC-MS/MS of S-thioallylated Cys peptides (+72 Da) [8, 13] | shotgun Orbitrap LC-MS/MS of S-thioallylated Cys peptides (+72 Da) ([1]; cells treated with 90 µM allicin, 30 min, conserved Cys) | IP and Orbitrap LC-MS/MS of S-thioallylated Cys peptides (+72 Da) [9] | shotgun Orbitrap LC-MS/MS of S-thioallylated Cys peptides (+72 Da) [2, 14] | shotgun Orbitrap LC-MS/MS of S-thioallylated Cys peptides (+72 Da) [3, 14] | IP and Orbitrap LC-MS/MS of S-thioallylated Cys peptides (+72 Da) [10] | IP and Orbitrap LC-MS/MS of S-thioallylated Cys peptides (+72 Da) [11] | shotgun Orbitrap LC-MS/MS of S-thioallylated Cys peptides (+72 Da) [4, 14] | shotgun Orbitrap LC-MS/MS of S-thioallylated Cys peptides (+72 Da) [5, 14] | shotgun Orbitrap LC-MS/MS of S-thioallylated Cys peptides (+72 Da) [6, 14] | shotgun Orbitrap LC-MS/MS of S-thioallylated Cys peptides (+72 Da) [7, 14] | shotgun Orbitrap LC-MS/MS of S-thioallylated Cys peptides (+72 Da) [8, 14] | IP and Orbitrap LC-MS/MS of S-thioallylated Cys peptides (+72 Da) [12] |
| --- | --- | --- | --- | --- | --- | --- | --- | --- | --- | --- | --- | --- | --- | --- | --- | --- | --- | --- | --- | --- |
| C=CCSSSSCC=C [DAS4] | MetE, YxjG, MetI, AroA, ArgJ, CarB, GlnA | SerA, and PpaC were modified at their redox-sensitive Cys residues by allicin and DAS4 | Cys83 of TufA, Cys239 of FusA | TufA, MetE, YxjG, GuaB, SerA, and PpaC were modified at their redox-sensitive Cys residues | GuaB and PpaC were S-thioallylated at their conserved redox-sensing active sites Cys308 and Cys158 | modified at their conserved Cys residues, e.g., Cys83 of TufA | Cys239 of FusA, and Cys719/Cys730 of MetE | pyrophosphatase PpaC were S-thioallylated by allicin and DAS4 in B. subtilis |  |  |  |  |  |  |  |  |  |  |  |  |
| C=CCS[S+]([O-])CC=C (centres unmarked) [allicin] |  |  |  |  |  |  |  |  | MetE, YxjG, MetI, AroA, ArgJ, CarB, GlnA | For the YodB-repressor, only Cys101 was S-thioallylated | SerA, and PpaC were modified at their redox-sensitive Cys residues by allicin and DAS4 | Cys83 of TufA, Cys239 of FusA | modified by S-thioallylation for OhrR (Cys15), HypR (Cys14), and CatR (Cys7) | modified by S-thioallylation for OhrR (Cys15), HypR (Cys14), and CatR (Cys7) | TufA, MetE, YxjG, GuaB, SerA, and PpaC were modified at their redox-sensitive Cys residues | GuaB and PpaC were S-thioallylated at their conserved redox-sensing active sites Cys308 and Cys158 | modified at their conserved Cys residues, e.g., Cys83 of TufA | Cys239 of FusA, and Cys719/Cys730 of MetE | pyrophosphatase PpaC were S-thioallylated by allicin and DAS4 in B. subtilis | modified by S-thioallylation for OhrR (Cys15), HypR (Cys14), and CatR (Cys7) |
